Consider 45 compounds from US11267800B2, “Cyclohexyl acid triazole azines as LPA antagonists” (BRISTOL-MYERS SQUIBB COMPANY, priority 2017, dated 2022).

Molecules are shown by their SMILES.

T1 sequence (Q92633 whole entry): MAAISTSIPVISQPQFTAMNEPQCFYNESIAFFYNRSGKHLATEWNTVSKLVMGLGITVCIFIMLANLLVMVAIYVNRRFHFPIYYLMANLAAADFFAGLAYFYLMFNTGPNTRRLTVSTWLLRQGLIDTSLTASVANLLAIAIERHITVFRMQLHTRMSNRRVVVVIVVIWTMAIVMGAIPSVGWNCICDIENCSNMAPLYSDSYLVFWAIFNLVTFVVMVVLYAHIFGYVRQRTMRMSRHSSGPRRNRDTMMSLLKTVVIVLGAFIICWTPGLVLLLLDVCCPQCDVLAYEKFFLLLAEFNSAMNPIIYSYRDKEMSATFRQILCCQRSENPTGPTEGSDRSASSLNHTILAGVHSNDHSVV

This assay concerns the target T1, human LPA1 (Homo sapiens, UniProt Q92633).
T1 construct: expressed in transfected cells; host or cells: Chinese hamster ovary (CHO) cells
The assay can be described thus: LPA1 functional antagonist assay (calcium flux). Type of assay: cell-based. To be noted: CHO cells overexpressing human LPA1; inhibition of calcium flux induced by 10 nM LPA; read-out: hLPA1 IC50. As to the method: The effectiveness of compounds of the present invention as LPA1 inhibitors can be determined in an LPA1 functional antagonist assay as follows:
Chinese hamster ovary cells overexpressing human LPA1 were plated overnight (15,000 cells/well) in poly-D-lysine coated 384-well microplates (Greiner bio-one, Cat #781946) in DMEM/F12 medium (Gibco, Cat #11039). Following overnight culture, cells were loaded with calcium indicator dye (AAT Bioquest Inc, Cat #34601) for 30 minutes at 37° C. The cells were then equilibrated to room temperature for 30 minutes before the assay. Test compounds solubilized in DMSO were transferred to 384 well non-binding surface plates (Corning, Cat #3575) using the Labcyte Echo acoustic dispense and diluted with assay buffer [1×HBSS with calcium/magnesium (Gibco Cat #14025-092), 20 mM HEPES (Gibco Cat #15630-080) and 0.1% fatty acid free BSA (Sigma Cat #A9205)] to a final concentration of 0.5% DMSO. Diluted compounds were added to the cells by FDSS6000 (Hamamatsu) at final concentrations ranging from 0.08 nM to 5 μM. and were then incubated for 20 min at room temperature at which time LPA (Avanti Polar Lipids Cat #857130C) was added at final concentrations of 10 nM to stimulate the cells. The compound IC50 value was defined as the concentration of test compound which inhibited 50% of the calcium flux induced by LPA alone. IC50 values were determined by fitting data to a 4-parameter logistic equation (GraphPad Prism, San Diego Calif.).
For orientation: Calcium assays in cells follow changes in intracellular calcium, usually with a dye or a luminescent sensor.
The term IC50 denotes the point on the concentration scale where inhibition reaches its midpoint. For the compound `CCC(C)c1ncnc(NCc2c(-c3ccc(O[C@H]4CCC[C@H](C(=O)O)C4)c(C)n3)nnn2C)n1` (mixture of isomers) [Example 197, (1S,3S)-3-((6-(5-(((4-(sec-Butyl)-1,3,5-triazin-2-yl)amino)methyl)-1-methyl-1H-1,2,3-triazol-4-yl)-2-methylpyridin-3-yl)oxy)cyclohexane-1-carboxylic acid], the IC50 came out at 94 nM. In the case of `CCC(C)c1nc(O)nc(NCc2c(-c3ccc(O[C@H]4CCC[C@H](C(=O)O)C4)c(C)n3)nnn2C)n1` (mixture of isomers) [Example 198, (1S,3S)-3-((6-(5-(((4-(sec-Butyl)-6-hydroxy-1,3,5-triazin-2-yl)amino)methyl)-1-methyl-1H-1,2,3-triazol-4-yl)-2-methylpyridin-3-yl)oxy) cyclohexane-1-carboxylic acid] it was 130 nM.

As to `Cc1nc(-c2nnn(C)c2COc2nccc(OC3CC3)n2)ccc1O[C@H]1CCCC(C(=O)O)C1` (mixture of isomers) [Example 251, (3S)-3-((6-(5-(((4-cyclopropoxypyrimidin-2-yl)oxy)methyl)-1-methyl-1H-1,2,3-triazol-4-yl)-2-methylpyridin-3-yl)oxy)cyclohexane-1-carboxylic acid], the IC50 was 41 nM.

As to `Cc1nc(-c2nnn(C)c2COc2nccc(OC(C)C)n2)ccc1O[C@H]1CCC[C@@H](C(=O)O)C1` (single isomer, unassigned) [Example 249], the IC50 was found to be 67 nM. In the case of `Cc1nc(-c2nnn(C)c2COc2nccc(OC(C)C)n2)ccc1O[C@H]1CCC[C@H](C(=O)O)C1` (single isomer, unassigned) [Example 250] it was 41 nM; in that of `Cc1nc(-c2nnn(C)c2CNc2cc(-c3ccccc3)ccn2)ccc1O[C@H]1CCC[C@H](C(=O)O)C1` (stereo in doubt) [Example 2, (1S,3S)-3-((2-Methyl-6-(1-methyl-5-(((4-phenylpyridin-2-yl)amino)methyl)-1H-1,2,3-triazol-4-yl)pyridin-3-yl)oxy)cyclohexanecarboxylic acid], 32 nM. In the case of `Cc1nc(-c2nnn(C)c2CNc2nccc(C(C)(C)C)n2)ccc1O[C@H]1CCC[C@H](C(=O)O)C1` [Example 1, (1S,3S)-3-((6-(5-(((4-(tert-Butyl)pyrimidin-2-yl)amino)methyl)-1-methyl-1H-1,2,3-triazol-4-yl)-2-methylpyridin-3-yl)oxy)cyclohexanecarboxylic acid] it was 26 nM. On to `Cc1nc(-c2nnn(C)c2CNc2ncnc(-c3ccccc3)n2)ccc1O[C@H]1CCC[C@H](C(=O)O)C1` [Example 3, (1S,3S)-3-((2-Methyl-6-(1-methyl-5-(((4-phenyl-1,3,5-triazin-2-yl)amino)methyl)-1H-1,2,3-triazol-4-yl)pyridin-3-yl)oxy)cyclohexanecarboxylic acid], for which the IC50 turned out to be 120 nM. In the case of `COc1nc(NCc2c(-c3ccc(O[C@H]4CCC[C@H](C(=O)O)C4)c(C)n3)nnn2C)nc(-c2ccccc2)n1` [Example 4, (1S,3S)-3-((6-(5-(((4-Methoxy-6-phenyl-1,3,5-triazin-2-yl)amino)methyl)-1-methyl-1H-1,2,3-triazol-4-yl)-2-methylpyridin-3-yl)oxy)cyclohexanecarboxylic acid] it was 153 nM.

As for `Cn1nnc(-c2cnc(O[C@H]3CCC[C@H](C(=O)O)C3)cn2)c1CNc1nccc(C(C)(C)C)n1` [Example 5, (1S,3S)-3-((5-(5-(((4-(tert-butyl)pyrimidin-2-yl)amino)methyl)-1-methyl-1H-1,2,3-triazol-4-yl)pyrazin-2-yl)oxy)cyclohexane-1-carboxylic acid], the IC50 came out at 361 nM. In the case of `CCCc1ccnc(NCc2c(-c3ccc(O[C@H]4CCC[C@H](C(=O)O)C4)c(C)n3)nnn2C)n1` [Example 7] it was 8 nM. As to `Cc1nc(-c2nnn(C)c2CNc2nccc(C(C)C)n2)ccc1O[C@H]1CCC[C@H](C(=O)O)C1` [Example 8], the IC50 came out at 10 nM. Turning to `Cc1nc(-c2nnn(C)c2CNc2nccc(C3CC3)n2)ccc1O[C@H]1CCC[C@H](C(=O)O)C1` [Example 9], the IC50 was 36 nM. In the case of `Cc1nc(-c2nnn(C)c2CNc2nccc(C3CCC3)n2)ccc1O[C@H]1CCC[C@H](C(=O)O)C1` [Example 10] it was 11 nM; in that of `Cc1nc(-c2nnn(C)c2CNc2nccc(Cc3ccccc3)n2)ccc1O[C@H]1CCC[C@H](C(=O)O)C1` [Example 11], 103 nM; in that of `COc1ccnc(NCc2c(-c3ccc(O[C@H]4CCC[C@H](C(=O)O)C4)c(C)n3)nnn2C)n1` [Example 12], 56 nM. In the case of `CCOc1ccnc(NCc2c(-c3ccc(O[C@H]4CCC[C@H](C(=O)O)C4)c(C)n3)nnn2C)n1` [Example 13], the IC50 turned out to be 19 nM. In the case of `Cc1nc(-c2nnn(C)c2CNc2nccc(OC(C)C)n2)ccc1O[C@H]1CCC[C@H](C(=O)O)C1` [Example 14] it was 46 nM. As for `Cc1nc(-c2nnn(C)c2CNc2nccc(Oc3ccccc3)n2)ccc1O[C@H]1CCC[C@H](C(=O)O)C1` [Example 15], the half-inhibitory concentration (IC50) was found to be 8 nM. In the case of `Cc1cc(OC(C)C)nc(NCc2c(-c3ccc(O[C@H]4CCC[C@H](C(=O)O)C4)c(C)n3)nnn2C)n1` [Example 16] it was 29 nM.

As to `Cc1nc(-c2nnn(C)c2CNc2nccc(N3CCCC3)n2)ccc1O[C@H]1CCC[C@H](C(=O)O)C1` [Example 17], the IC50 is 206 nM. In the case of `Cc1nc(-c2nnn(C)c2CNc2nccc(C(F)(F)F)n2)ccc1O[C@H]1CCC[C@H](C(=O)O)C1` [Example 18] it was 66 nM; in that of `Cc1cnc(NCc2c(-c3ccc(O[C@H]4CCC[C@H](C(=O)O)C4)c(C)n3)nnn2C)nc1-c1ccccc1` [Example 19], 8 nM. In the case of `Cc1nc(-c2nnn(C)c2CNc2nccc(-c3ccccc3F)n2)ccc1O[C@H]1CCC[C@H](C(=O)O)C1` [Example 20] it was 16 nM; in that of `Cc1nc(-c2nnn(C)c2CNc2nccc(-c3ccccn3)n2)ccc1O[C@H]1CCC[C@H](C(=O)O)C1` [Example 21], 101 nM. In the case of `COc1ccccc1-c1ccnc(NCc2c(-c3ccc(O[C@H]4CCC[C@H](C(=O)O)C4)c(C)n3)nnn2C)n1` [Example 22] it was 219 nM; in that of `Cc1nc(-c2nnn(C)c2CNc2cc(C(C)(C)C)ncn2)ccc1O[C@H]1CCC[C@H](C(=O)O)C1` [Example 23], 1050 nM; in that of `COc1cc(NCc2c(-c3ccc(O[C@H]4CCC[C@H](C(=O)O)C4)c(C)n3)nnn2C)ncn1` [Example 24], 218 nM. Turning to `Cc1nc(-c2nnn(C)c2CNc2ccnc(OC(C)C)n2)ccc1O[C@H]1CCC[C@H](C(=O)O)C1` [Example 25], the IC50 worked out at 145 nM.

Turning to `Cn1nnc(-c2ccc(O[C@H]3CCC[C@H](C(=O)O)C3)cn2)c1CNc1nccc(-c2ccccc2)n1` [Example 26], the IC50 came to 8 nM. In the case of `Cn1nnc(-c2cnc(O[C@H]3CCC[C@H](C(=O)O)C3)cn2)c1CNc1nccc(-c2ccccc2)n1` [Example 27] it was 26 nM; in that of `Cn1nnc(-c2ccc(O[C@H]3CCC[C@H](C(=O)O)C3)cn2)c1CNc1nccc(-c2ccccc2F)n1` [Example 28], 19 nM; in that of `Cn1nnc(-c2ccc(O[C@H]3CCC[C@H](C(=O)O)C3)cn2)c1CNc1nccc(-c2ccccn2)n1` [Example 29], 39 nM.

For the compound `Cc1cnc(NCc2c(-c3ccc(O[C@H]4CCC[C@H](C(=O)O)C4)cn3)nnn2C)nc1-c1ccccn1` [Example 30], the IC50 is 300 nM.

In the case of `Cn1nnc(-c2ccc(O[C@H]3CCC[C@H](C(=O)O)C3)cn2)c1CNc1nccc(Oc2ccccc2)n1` [Example 31], the IC50 came to 178 nM. In the case of `Cn1nnc(-c2ccc(O[C@H]3CCC[C@H](C(=O)O)C3)cn2)c1CNc1nccc(-c2cccnc2)n1` [Example 32] it was 277 nM; in that of `Cn1nnc(-c2ccc(O[C@H]3CCC[C@H](C(=O)O)C3)cn2)c1CNc1nccc(-n2cccn2)n1` [Example 34], 1130 nM; in that of `CC(C)c1ccnc(NCc2c(-c3ccc(O[C@H]4CCC[C@H](C(=O)O)C4)cn3)nnn2C)n1` [Example 35], 28 nM. On to `COc1ccccc1-c1ccnc(NCc2c(-c3ccc(O[C@H]4CCC[C@H](C(=O)O)C4)cn3)nnn2C)n1` [Example 36], for which the IC50 turned out to be 59 nM. Regarding `Cc1cc(-c2ccccn2)nc(NCc2c(-c3ccc(O[C@H]4CCC[C@H](C(=O)O)C4)cn3)nnn2C)n1` [Example 37], the half-maximal inhibitory concentration (IC50) amounted to 166 nM. For the compound `Cn1nnc(-c2ccc(O[C@H]3CCC[C@H](C(=O)O)C3)cn2)c1CNc1nccc(C(C)(C)C)n1` [Example 38], the IC50 came out at 36 nM. In the case of `Cc1nc(-c2nnn(C)c2CNc2nccc(-c3ccccc3)n2)ccc1O[C@H]1CCC[C@H](C(=O)O)C1` [Example 39] it was 41 nM. In the case of `CCc1ccnc(NCc2c(-c3ccc(O[C@H]4CCC[C@H](C(=O)O)C4)c(C)n3)nnn2C)n1` [Example 40] it was 46 nM; in that of `Cc1nc(-c2nnn(C)c2CNc2ncc(F)c(NCC(F)(F)F)n2)ccc1O[C@H]1CCC[C@H](C(=O)O)C1` [Example 41], 208 nM; in that of `Cc1nc(-c2nnn(C)c2CNc2ncc(F)c(N3CCC3)n2)ccc1O[C@H]1CCC[C@H](C(=O)O)C1` [Example 42], 218 nM.
